Key:
[1] = molecular target: T1, MALT1 (Homo sapiens, UniProt Q9UDY8); experiment: MALT1 protease inhibition assay (AMC-labeled peptide, fluorescence 360/460); assay type: biochemical; settings: substrate Ac-LRSR-AMC, 15 min preincubation, 90 min at 25° C.
T1 sequence (Q9UDY8 1-824): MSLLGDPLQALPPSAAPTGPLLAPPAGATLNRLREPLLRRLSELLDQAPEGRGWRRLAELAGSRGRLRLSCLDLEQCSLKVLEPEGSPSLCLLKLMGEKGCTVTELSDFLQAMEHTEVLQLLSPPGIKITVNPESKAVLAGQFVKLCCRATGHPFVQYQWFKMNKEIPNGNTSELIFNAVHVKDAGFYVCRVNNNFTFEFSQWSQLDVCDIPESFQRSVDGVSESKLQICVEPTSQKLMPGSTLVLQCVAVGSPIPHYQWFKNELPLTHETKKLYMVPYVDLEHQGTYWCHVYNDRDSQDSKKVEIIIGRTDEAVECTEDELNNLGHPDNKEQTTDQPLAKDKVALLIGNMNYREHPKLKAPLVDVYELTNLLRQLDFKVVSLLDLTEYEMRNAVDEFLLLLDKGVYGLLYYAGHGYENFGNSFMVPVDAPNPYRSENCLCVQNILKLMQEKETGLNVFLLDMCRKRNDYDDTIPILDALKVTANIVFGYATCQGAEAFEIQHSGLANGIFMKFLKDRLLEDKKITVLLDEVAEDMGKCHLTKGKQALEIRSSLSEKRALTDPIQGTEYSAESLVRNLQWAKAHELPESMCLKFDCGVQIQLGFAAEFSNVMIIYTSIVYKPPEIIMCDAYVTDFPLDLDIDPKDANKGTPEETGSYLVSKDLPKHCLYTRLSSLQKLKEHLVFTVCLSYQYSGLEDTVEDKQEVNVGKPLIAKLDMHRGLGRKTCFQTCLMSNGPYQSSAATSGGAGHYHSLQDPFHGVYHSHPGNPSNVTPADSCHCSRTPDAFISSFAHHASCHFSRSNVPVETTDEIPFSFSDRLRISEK
In short: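 Recombinant MALT1 preincubated with test compounds (10-point 1:3 dilutions in DMSO, duplicates) for 15 min at 25 °C in citrate-containing protease buffer with DTT, then AMC-labeled peptide added for 90 min at 25 °C. Inhibition normalized to no-compound (max) and no-enzyme (min) wells; IC50 from curve fit.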

[2] = test system: IL-2 secretion of Jurkat cells (PMA/Ionomycin inducing); experiment: ELISA method to detect IL-2 secretion induced by PMA/Ionomycin; assay type: cell-based; settings: Homo sapiens, 20 h
Method: 12.5*10^3 Jurkat cells were seeded on a 96-well plate and incubated with various concentrations of compound solution for 30 min. Then, 500×PMA/Ionomycin stimulating factor was diluted with culture medium and added to the cell plate. […] The final concentrations of the compounds were 10000, 3333.3, 1111.1, 370.4, 123.5, 41.2, 13.7, 4.6, 1.5, 0 nM (The final concentration of DMSO is 0.5%). After incubation for 20 h, the supernatant was collected via centrifugation. The final IL-2 concentration was detected by ELISA method (IL-2 Duoset, R&D Systems, DY202). The signal value of each sample at a wavelength of 450 nm was collected by EnVision multifunctional microplate reader and converted to the IL-2 concentration via the ELISACalc.exe software. The IL-2 secretion inhibitory activity IC50 was fitted by GraphPad Prism software. The cell viability was tested simultaneously using the Cell-Titer Glo kit.
The compounds of the present invention show strong inhibitory effect on IL-2 secretion of Jurkat cells (PMA/Ionomycin inducing).

Row | Structure (SMILES) | IC50 [1] | IC50 [2]
1 | C#Cc1cncc(N)c1-c1cc(Cl)c(C(=O)Nc2cnc(C(=O)NCC(F)(F)F)c(Cl)c2)cc1F [Example A470, 5-(4-(3-amino-5-ethynylpyridin-4-yl)-2-chloro-5-fluorobenzamido)-3-chloro-N-(2,2,2-trifluoroethyl)picolinamide] | ≤ 10 nM | 113 nM
2 | Nc1ccccc1-c1cc(Cl)c(C(=O)Nc2cnc(-n3nccn3)c(Cl)c2)cc1F [Example A109, 2′-amino-5-chloro-N-(5-chloro-6-(2H-1,2,3-triazol-2-yl)pyridin-3-yl)-2-fluoro-[1,1′-biphenyl]-4-carboxamide] | ≤ 10 nM | 94 nM
3 | Nc1ccccc1-c1cc(F)c(C(=O)Nc2cnc(-n3nccn3)c(Cl)c2)cc1Cl [Example A119, 2′-amino-2-chloro-N-(5-chloro-6-(2H-1,2,3-triazol-2-yl)pyridin-3-yl)-5-fluoro-[1,1′-biphenyl]-4-carboxamide] | ≤ 10 nM | 466 nM
4 | CNc1cc(F)ccc1-c1cc(F)c(C(=O)Nc2cnc(-n3nccn3)c(Cl)c2)cc1Cl [Example A127, 2-chloro-N-(5-chloro-6-(2H-1,2,3-triazol-2-yl)pyridin-3-yl)-4′,5-difluoro-2′-(methylamino)-[1,1′-biphenyl]-4-carboxamide] | ≤ 10 nM | 444 nM
5 | Cc1cc(-c2ccncc2Cl)c(F)cc1C(=O)Nc1cnc(-n2nccn2)c(Cl)c1 [Example A126] | ≤ 10 nM | 136 nM
6 | Nc1ccccc1-c1cc(F)c(C(=O)Nc2cnc(-n3nccn3)c(C(F)(F)F)c2)cc1Cl [Example A110] | ≤ 10 nM | 186 nM
7 | C#Cc1cnccc1-c1cc(Cl)c(C(=O)Nc2cnc(C(=O)NCC)c(Cl)c2)cc1F [Example A428, 3-chloro-5-(2-chloro-4-(3-ethynylpyridin-4-yl)-5-fluorobenzamido)-N-ethylpicolinamide] | ≤ 10 nM | 164 nM
8 | Nc1cc(F)ccc1-c1cc(Cl)c(C(=O)Nc2cnc(-n3nccn3)c(C(F)(F)F)c2)cc1F [Example A122, N-(6-(2H-1,2,3-triazol-2-yl)-5-(trifluoromethyl)pyridin-3-yl)-2′-amino-5-chloro-2,4′-difluoro-[1,1′-biphenyl]-4-carboxamide] | ≤ 10 nM | 121 nM
9 | Nc1cnccc1-c1cc(F)c(C(=O)Nc2cnc(-n3nccn3)c(Cl)c2)cc1Cl [Example A124] | ≤ 10 nM | 252 nM
10 | O=C(Nc1cnc(-n2nccn2)c(C(F)(F)F)c1)c1cc(F)c(-c2ccccc2Cl)cc1Cl [Example A106, N-(6-(2H-1,2,3-triazol-2-yl)-5-(trifluoromethyl)pyridin-3-yl)-2′,5-dichloro-2-fluoro-[1,1′-biphenyl]-4-carboxamide] | – | 265 nM
11 | COc1cc(F)ccc1-c1cc(Cl)c(C(=O)Nc2cnc(-n3nccn3)c(C(F)(F)F)c2)cc1F [Example A112, N-(6-(2H-1,2,3-triazol-2-yl)-5-(trifluoromethyl)pyridin-3-yl)-5-chloro-2,4′-difluoro-2′-methoxy-[1,1′-biphenyl]-4-carboxamide] | – | 234 nM
12 | C#Cc1cnccc1-c1cc(Cl)c(C(=O)Nc2cnc(C(=O)NCC(F)(F)F)c(Cl)c2)cc1F [Example A429, 3-chloro-5-(2-chloro-4-(3-ethynylpyridin-4-yl)-5-fluorobenzamido)-N-(2,2,2-trifluoroethyl)picolinamide] | – | 259 nM
13 | CC(=O)c1cncc(N)c1-c1cc(Cl)c(C(=O)Nc2cnc(-n3nccn3)c(Cl)c2)cc1F [Example A529, 4-(3-acetyl-5-aminopyridin-4-yl)-2-chloro-N-(5-chloro-6-(2H-1,2,3-triazol-2-yl)pyridin-3-yl)-5-fluorobenzamide] | – | 208 nM
14 | COc1ccccc1-c1ccc(C(=O)Nc2cnc(-n3nccn3)c(C(F)(F)F)c2)c(C)c1 [Example A64] | – | 463 nM

These reach a lower IC50 [2]. Values come first.

Row | IC50 [1] | IC50 [2] | Structure (SMILES)
15 | ≤ 10 nM | 77 nM | C#Cc1cnccc1-c1cc(Cl)c(C(=O)Nc2cnc(C(=O)NC)c(Cl)c2)cc1F [Example A426, 3-chloro-5-(2-chloro-4-(3-ethynylpyridin-4-yl)-5-fluorobenzamido)-N-methylpicolinamide]
16 | ≤ 10 nM | 77 nM | C#Cc1cnccc1-c1cc(Cl)c(C(=O)Nc2cnc(C(=O)NCC#N)c(Cl)c2)cc1F [Example A427, 3-chloro-5-(2-chloro-4-(3-ethynylpyridin-4-yl)-5-fluorobenzamido)-N-(cyanomethyl)picolinamide]
17 | ≤ 10 nM | 77 nM | O=C(Nc1cnc(-n2nccn2)c(Cl)c1)c1cc(F)c(-c2ccc(F)cc2CO)cc1Cl [Example A281]
18 | ≤ 10 nM | 76 nM | Nc1cncc(C2CC2)c1-c1cc(Cl)c(C(=O)Nc2cnc(-n3nccn3)c(Cl)c2)cc1F [Example A506, 4-(3-amino-5-cyclopropylpyridin-4-yl)-2-chloro-N-(5-chloro-6-(2H-1,2,3-triazol-2-yl)pyridin-3-yl)-5-fluorobenzamide]
19 | ≤ 10 nM | 66 nM | C#Cc1cncc(N)c1-c1cc(Cl)c(C(=O)Nc2cnc(-n3nccn3)c(C(F)(F)F)c2)cc1F [Example A410, N-(6-(2H-1,2,3-triazol-2-yl)-5-(trifluoromethyl)pyridin-3-yl)-4-(3-amino-5-ethynylpyridin-4-yl)-2-chloro-5-fluorobenzamide]
20 | ≤ 10 nM | 58 nM | Nc1cc(F)ccc1-c1cc(F)c(C(=O)Nc2cnc(-n3nccn3)c(C(F)(F)F)c2)cc1Cl [Example A123, N-(6-(2H-1,2,3-triazol-2-yl)-5-(trifluoromethyl)pyridin-3-yl)-2′-amino-2-chloro-4′,5-difluoro-[1,1′-biphenyl]-4-carboxamide]
21 | ≤ 10 nM | 57 nM | Nc1cc(F)ccc1-c1cc(F)c(C(=O)Nc2cnc(-n3nccn3)c(Cl)c2)cc1Cl [Example A120, 2′-amino-2-chloro-N-(5-chloro-6-(2H-1,2,3-triazol-2-yl)pyridin-3-yl)-4′,5-difluoro-[1,1′-biphenyl]-4-carboxamide]
22 | ≤ 10 nM | 54 nM | Cc1cc(-c2ccc(F)cc2F)c(F)cc1C(=O)Nc1cnc(-n2nccn2)c(Cl)c1 [Example A116, N-(5-chloro-6-(2H-1,2,3-triazol-2-yl)pyridin-3-yl)-2,2′,4′-trifluoro-5-methyl-[1,1′-biphenyl]-4-carboxamide]
23 | ≤ 10 nM | 43 nM | Nc1cc(F)ccc1-c1cc(Cl)c(C(=O)Nc2cnc(-n3nccn3)c(Cl)c2)cc1F [Example A121, 2′-amino-5-chloro-N-(5-chloro-6-(2H-1,2,3-triazol-2-yl)pyridin-3-yl)-2,4′-difluoro-[1,1′-biphenyl]-4-carboxamide]
24 | ≤ 10 nM | 40 nM | Cc1cc(-c2ccc(F)cc2Cl)c(F)cc1C(=O)Nc1cnc(-n2nccn2)c(Cl)c1 [Example A115, 2′-chloro-N-(5-chloro-6-(2H-1,2,3-triazol-2-yl)pyridin-3-yl)-2,4′-difluoro-5-methyl-[1,1′-biphenyl]-4-carboxamide]
25 | ≤ 10 nM | 35 nM | Cc1cc(-c2ccc(F)cc2N)c(F)cc1C(=O)Nc1cnc(-n2nccn2)c(Cl)c1 [Example A113]
26 | ≤ 10 nM | 34 nM | Cc1cc(-c2ccc(F)cc2Br)c(F)cc1C(=O)Nc1cnc(-n2nccn2)c(Cl)c1 [Example A114]
27 | ≤ 10 nM | 32 nM | C#Cc1cc(F)cc(N)c1-c1cc(Cl)c(C(=O)Nc2cnc(-n3nccn3)c(Cl)c2)cc1F [Example A412]
28 | ≤ 10 nM | 17 nM | C#Cc1cncc(N)c1-c1cc(Cl)c(C(=O)Nc2cnc(-n3nccn3)c(Cl)c2)cc1F [Example A411, 4-(3-amino-5-ethynylpyridin-4-yl)-2-chloro-N-(5-chloro-5-(2H-1,2,3-triazol-2-yl)pyridin-3-yl)-5-fluorobenzamide]
